Test results taken from article PMC2933066 (Bioorganic & medicinal chemistry letters, 2010).
Converted amounts (≈) assume the structure as drawn.

Key:
[1] = tested on: KB (human epidermoid carcinoma of the nasopharynx); settings: cited from earlier work
[2] = tested on: A549 (human lung adenocarcinoma); settings: cited from earlier work
tubulin = assay type: biochemical; settings: read-out: Inhibition of tubulin assembly IC50 (μM) ± SD

| SMILES | ED50 against KB [1] [µg/mL] | ED50 against A549 [2] [µg/mL] | IC50 (tubulin) [µM] |
| --- | --- | --- | --- |
| COc1cc2c(c(OC)c1O)-c1ccc(SC)c(=O)cc1C(NC(C)=O)CC2 (centres unmarked) [Compound 3, 2-Demethylthiocolchicine] | 0.01 (≈ 0.0249 µM) | 0.01 (≈ 0.0249 µM) | – |
| CCCN([C@H]1CCc2cc(OC)c(OC)c(OC)c2-c2ccc(SC)c(=O)cc21)S(=O)(=O)c1ccccc1[N+](=O)[O-] [Compound 13] | – | – | > 40 |
| CN[C@H]1CCc2cc(OC)c(O)c(OC)c2-c2ccc(SC)c(=O)cc21 [Compound 15] | – | – | > 40 |
| CN[C@H]1CCc2cc(OC)c(OP(=O)(O)O)c(OC)c2-c2ccc(SC)c(=O)cc21 [Compound 16] | – | – | > 40 |
